Measurements as given in patent publication EP0126849A1, “Pharmacologically active N-amino hydantoin derivatives, their synthesis and intermediates” (THE WELLCOME FOUNDATION LIMITED, priority 1983, dated 1984).
Values after ≈ are worked out from the molar mass of the structure shown.

What was measured:
platelet aggregation = assay: Inhibition of platelet aggregation in human platelet-rich plasma (Born-type aggregometer, ADP or other aggregating agent); format: cell-based; details: for IC50: Homo sapiens, Platelet, 1 min, 1 min incubation at 37°C before aggregating agent, read-out: IC50; for IC50 / Potency relative to PGI2: human PRP; for Potency relative to PGI2: 1 min incubation, PGI2 = 1; for Increase on Incubation (min) 5: increase in potency after 5 min incubation in PRP; for Increase on Incubation (min) 10: increase in potency after 10 min incubation in PRP
Procedure: Human blood was freshly collected into siliconized (Siloclad; Clay Adams) plastic (Sterilin Ltd.) vessels containing trisodium citrate (3.15%; 0.1 volume with 0.9 volume blood) and centrifuged (200 g for 15 min) at room temperature. The platelet-rich plasma (PRP) was withdrawn into plastic containers and kept at room temperature. Inhibition of […] prior to addition of sufficient adenosine diphosphate (ADP) or other aggregating agent to just cause a non-reversing control aggregation. Dose-inhibition curves were constructed for each compound and the ID50 (dose causing 50% inhibition) was calculated as the dose required to reduce the aggregation to 50% of its control amplitude. […] For comparison, also given are the results upon administration of 5-(6-carboxyhexyl)-1-(3-cyclohexyl-3-hydroxypropyl)hydantoin (Compound X) which is disclosed in UK Specification 1,595,694. -
In this and subsequent biological examples, where a compound number refers to a single diastereoisomer, a mixture of diastereoisomers is indicated by two compound numbers separated by /.

[1] = test system: rabbit platelet aggregation; assay: Ex vivo rabbit platelet aggregation after i.v. infusion of the hydantoin (ADP 20 µM); format: in vivo, rabbits; details: i.v. infusion for 15 min, blood sample 10 min after start of infusion
Procedure: Male rabbits (2-2.5 kg body weight) were anaesthetized with sodium pentobarbitone (30 mg/kg, i.v. followed by maintenance doses of 3mg/kg) and systemic arterial blood pressure (BP) was recorded from a cannula filled with
heparinized saline (5 units/ml) in a carotid artery; no heparin was administered to the animal. Hydantoins were administered via a cannula in a femoral vein. Blood samples (1.5 ml) were slowly collected into a plastic syringe containing tri-sodium citrate (3.18%, 0.15 ml) from a cannula inserted into a femoral artery, shaken gently and transferred to an Eppendorf plastic tube and spun in a modified Eppendorf centrifuge for 2 sec (Model 5412, maximum centrifugal force 10,000 x g). The PRP was collected and a 0.35 ml aliquot was transferred to the aggregometer and incubated at 37°C for 1 minute prior to addition of sufficient ADP (20 µM) to produce near-maximal aggregation. The time-interval between removal of blood samples and the transference of the PRP to the aggregometer was less than 1.5 min.
Blood samples were removed at 10 min. intervals once the BP of the rabbit had reached steady resting levels, 10-20 min. following the preparative surgical procedures. After three control blood samples had been prepared and the control aggregation of the platelets measured, the hydantoin was infused intravenously for 15 min from a Braun slow-infusion apparatus. Blood samples were collected 10 min after the start of the infusion. Two further 10 min. samples post-infusion were collected prior to commencing further infusions.
The following results list values of ED50 and change in blood pressure. For comparison, also given are the results obtained upon administration of PGIZ and Compound X.

[2] = test system: systemic arterial blood pressure (BP); assay: Concurrent change in systemic arterial blood pressure in anaesthetized rabbits; format: in vivo; details: for Δ BP: anaesthetized rabbit, i.v. infusion, at the ED50 dose; for blood pressure depressant activity: at the ED50 doses, rabbit, stated in words
Procedure: Male rabbits (2-2.5 kg body weight) were anaesthetized with sodium pentobarbitone (30 mg/kg, i.v. followed by maintenance doses of 3mg/kg) and systemic arterial blood pressure (BP) was recorded from a cannula filled with heparinized saline (5 units/ml) in a carotid artery; no heparin was administered to the animal. Hydantoins were administered via a cannula in a femoral vein. Blood samples (1.5 ml) were slowly collected into a plastic syringe containing tri-sodium citrate (3.18%, 0.15 ml) from a cannula inserted into a femoral artery, shaken gently and transferred to an Eppendorf plastic tube and spun in a modified Eppendorf centrifuge for 2 sec (Model 5412, maximum centrifugal force 10,000 x g). The PRP was collected and a 0.35 ml aliquot was transferred to the aggregometer and incubated at 37°C for 1 minute prior to addition of sufficient ADP (20 µM) to produce near-maximal aggregation. The time-interval between removal of blood samples and the transference of the PRP to the aggregometer was less than 1.5 min. […] After three control blood samples had been prepared and the control aggregation of the platelets measured, the hydantoin was infused intravenously for 15 min from a Braun slow-infusion apparatus. Blood samples were collected 10 min after the start of the infusion. Two further 10 min. samples post-infusion were collected prior to commencing further infusions. The following results list values of ED50 and change in blood pressure. For comparison, also given are the results obtained upon administration of PGIZ and Compound X.

[3] = test system: mean systemic arterial blood pressure (BP); assay: Cardiovascular actions in rats: fall in blood pressure and duration of the hypotensive effect; format: in vivo, male Wistar rats; details: for Fall in BP Relative Potency PGE1 / Fall in BP Relative Potency PGI2: anaesthetized rat, i.v. injection; for Fall in BP Relative Potency PGE1: potency ratio against PGE1; for Fall in BP Relative Potency PGI2: potency ratio against PGI2; for Duration t½: time from peak hypotensive response to recovery to half its peak, rat i.v.
Procedure: Anaesthesia was induced in male Wistar rats (250-300 g body weight) with sodium pentobarbitone (30 mg kg^-1, i.v.) and supplemented (3 mg kg^-1) when required. Arterial pressure was recorded from a cannulated femoral artery and heart rate derived from the arterial pulse. Rectal temperature was maintained at 37°C by thermistor-controlled radiant heat. Each compound was injected into a femoral vein in a volume of 0.25 ml and flushed in with 0.2 ml of saline (0.9% w/v). Dose-response relationships for the fall in mean systemic arterial blood pressure (BP) with the hydantoins were constructed and compared to those obtained with PGI2 and PGE, in the same animal, and a potency ratio calculated. […] Figures for Compound X and PGI2 are listed for comparison.

B.P. = assay: Cardiovascular studies in the dog: vasodepressor potency and duration; format: in vivo, Dogs; details: i.v. bolus
Procedure: Dogs (10-15 kg body weight) were anaesthetized with chloralose (80 mg/kg i.v.) and maintained with subcutaneous injections of pentobarbitone (3 mg/kg). Drugs were administered via a femoral vein by bolus injection and B.P. was recorded from the right femoral artery. Results give vasodepressor potency and t1 2 duration. Figures for Compound X are provided for comparison.

[4] = test system: acid-ethanol induced gastric lesions; assay: Inhibition of acid-ethanol induced gastric lesions in rats (cytoprotection); format: in vivo; details: rat, oral
Procedure: The inhibition of acid-ethanol induced gastric lesions in rats (cytoprotection) was measured for various doses of orally administered hydantoin. Figures for compound X are given for comparison.

[5] = Dose 1.25 ug kg^-1, duration of vasodepressor effect

Compound	IC50 (platelet aggregation) [ng/mL]	Potency relative to PGI2 (platelet aggregation)	Increase on Incubation (min) 5 (platelet aggregation)	Increase on Incubation (min) 10 (platelet aggregation)	ED50 [1] [µg/kg/min]	Δ BP [2] [mmHg]	blood pressure depressant activity [2]	Fall in BP Relative Potency PGE1 [3]	Fall in BP Relative Potency PGI2 [3]	Duration t½ [3] [min]	Δ BP (B.P.; Dose 0.625 ug kg^-1) [mm Hg]	t1/2 (B.P.; Dose 0.625 ug kg^-1, duration of vasodepressor effect) [min]	Δ BP (B.P.; Dose 1.25 ug kg^-1) [mm Hg]	t1/2 (B.P.; [5]) [min]	% inhibition ([4]; Dose 10 μg kg^-1) [%]	% inhibition ([4]; Dose 25 μg kg^-1) [%]	% inhibition ([4]; Dose 50 μg kg^-1) [%]	Δ BP (B.P.; Dose 2.5 ug kg^-1) [mm Hg]	t1/2 (B.P.; Dose 2.5 ug kg^-1, duration of vasodepressor effect) [min]	% inhibition ([4]; Dose 5 μg kg^-1) [%]
O=C(O)CCCCCCC1C(=O)NC(=O)N1N=CC(O)C1CCCCC1 (single isomer, unassigned) [Compound No. 6, 5-(6-carboxyhe-xyl)-1-(2-cyclohexyl-2-hydroxyethylideneamino)hydantoin]	2 (≈ 5.44 nM)	0.30	x5	x20	0.15	0	no significant blood pressure depressant activity	0.5	0.041	17.0	-54	60	-65	>60	31 ± 20	50 ± 21	69 ± 8			
O=C(O)CCCCCCC1C(=O)NC(=O)N1N=CC(O)C1CCCCC1 (centres unmarked) [Compound No. 3, 5-(6-carboxyhexyl)-1-(2-cyclohexyl-2-hydroxy-ethylideneamino)hydantoin]	16 (≈ 43.5 nM)	0.02	x7	x20	2.0	0	no significant blood pressure depressant activity	0.324	0.027	11.0										
O=C(O)CCCCCCC1C(=O)NC(=O)N1CCC(O)C1CCCCC1 (centres unmarked) [Compound X, 5-(6-carboxyhexyl)-1-(3-cyclohexyl-3-hydroxypropyl)hydantoin, reference compound]	1.5 (≈ 4.07 nM)	0.21	x2	x3	3.3	-5		0.72	0.06	4.0			-45	2.8	80 ± 9	89 ± 6		-56	6.2	46 ± 26
CCCCC[C@H](O)/C=C/[C@@H]1[C@H]2C/C(=C/CCCC(=O)O)O[C@H]2C[C@H]1O [PGI2, reference compound]					0.2	-20		11.0		0.3										
